Measured values as given in patent US11066396B2 (priority 2016, dated 2021).

Assays:
[1] = target: HDAC1 (Homo sapiens (Human), UniProt Q13547); details: read-out: HDAC1 IC50
[2] = target: HDAC5 (Homo sapiens (Human), UniProt Q9UQL6); details: read-out: HDAC5 IC50
HDAC5, sequence (Q9UQL6 656-1122): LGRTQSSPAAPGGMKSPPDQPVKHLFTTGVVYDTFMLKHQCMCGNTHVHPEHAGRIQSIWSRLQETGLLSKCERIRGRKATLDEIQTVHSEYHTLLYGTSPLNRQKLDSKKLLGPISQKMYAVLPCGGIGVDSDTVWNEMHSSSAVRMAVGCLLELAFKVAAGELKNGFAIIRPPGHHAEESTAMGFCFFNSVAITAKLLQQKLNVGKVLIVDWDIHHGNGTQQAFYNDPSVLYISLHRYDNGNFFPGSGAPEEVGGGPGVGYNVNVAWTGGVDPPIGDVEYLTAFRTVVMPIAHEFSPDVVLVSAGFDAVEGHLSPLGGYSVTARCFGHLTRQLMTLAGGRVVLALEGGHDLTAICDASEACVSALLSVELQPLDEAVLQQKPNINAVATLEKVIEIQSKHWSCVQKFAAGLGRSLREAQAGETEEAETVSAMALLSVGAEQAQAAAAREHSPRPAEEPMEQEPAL

HDAC1, sequence (Q13547 whole entry): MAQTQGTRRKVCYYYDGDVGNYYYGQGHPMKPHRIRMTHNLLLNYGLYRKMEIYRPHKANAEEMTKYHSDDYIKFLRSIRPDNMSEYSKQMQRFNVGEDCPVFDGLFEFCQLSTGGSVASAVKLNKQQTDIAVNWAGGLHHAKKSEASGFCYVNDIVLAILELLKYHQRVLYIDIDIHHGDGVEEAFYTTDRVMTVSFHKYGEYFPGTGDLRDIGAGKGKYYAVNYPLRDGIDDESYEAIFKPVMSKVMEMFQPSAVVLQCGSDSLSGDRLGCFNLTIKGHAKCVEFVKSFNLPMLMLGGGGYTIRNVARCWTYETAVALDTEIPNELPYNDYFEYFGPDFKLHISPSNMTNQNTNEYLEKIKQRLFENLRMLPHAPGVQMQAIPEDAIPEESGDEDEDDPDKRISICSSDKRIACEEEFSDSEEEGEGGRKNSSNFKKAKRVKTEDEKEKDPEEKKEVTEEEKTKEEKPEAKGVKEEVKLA

Structure (SMILES)	IC50 [1]	IC50 [2]
Fc1cc(COc2nc3ncccc3n2CC(F)(F)F)ccc1-c1noc(C(F)(F)F)n1 [Example 277, 2-({3-fluoro-4-[5-(trifluoromethyl)-1,2,4-oxadiazol-3-yl]phenyl}methoxy)-1-(2,2,2-trifluoroethyl)-1H-imidazo[4,5-b]pyridine]	2000 nM	130 nM
Fc1cc(COc2nc3cccnc3n2CC(F)(F)F)ccc1-c1noc(C(F)(F)F)n1 [Example 278, 2-({3-fluoro-4-[5-(trifluoromethyl)-1,2,4-oxadiazol-3-yl]phenyl}methoxy)-3-(2,2,2-trifluoroethyl)-3H-imidazo[4,5-b]pyridine]	780 nM	86 nM
COc1ncc(OCc2ccc(-c3noc(C(F)(F)F)n3)c(F)c2)cn1 [Example 279, 5-({3-fluoro-4-[5-(trifluoromethyl)-1,2,4-oxadiazol-3-yl]phenyl}methoxy)-2-methoxypyrimidine]	750 nM	69 nM
Fc1cc(COc2nnc(C3CC3)o2)ccc1-c1noc(C(F)(F)F)n1 [Example 280, 3-(4-{[(5-cyclopropyl-1,3,4-oxadiazol-2-yl)oxy]methyl}-2-fluorophenyl)-5-(trifluoromethyl)-1,2,4-oxadiazole]	2200 nM	190 nM
Cc1csc(OCc2ccc(-c3noc(C(F)(F)F)n3)c(F)c2)n1 [Example 281, 3-(2-fluoro-4-{[(4-methyl-1,3-thiazol-2-yl)oxy]methyl}phenyl)-5-(trifluoromethyl)-1,2,4-oxadiazole]	2700 nM	30 nM
Fc1cc(COc2ccc3cccc(F)c3n2)ccc1-c1noc(C(F)(F)F)n1 [Example 282, 8-fluoro-2-({3-fluoro-4-[5-(trifluoromethyl)-1,2,4-oxadiazol-3-yl]phenyl}methoxy)quinoline]	720 nM	7 nM
Fc1cc(F)c(OCc2ccc(-c3noc(C(F)(F)F)n3)c(F)c2)cn1 [Example 283, 2,4-difluoro-5-({3-fluoro-4-[5-(trifluoromethyl)-1,2,4-oxadiazol-3-yl]phenyl}methoxy)pyridine]	45000 nM	75 nM
CNC(=O)c1ccccc1OCc1ccc(-c2noc(C(F)(F)F)n2)c(F)c1 [Example 284, 2-({3-fluoro-4-[5-(trifluoromethyl)-1,2,4-oxadiazol-3-yl]phenyl}methoxy)-N-methylbenzamide]	2200 nM	260 nM
Fc1cc(COc2ccc3cncnc3c2)ccc1-c1noc(C(F)(F)F)n1 [Example 285, 7-({3-fluoro-4-[5-(trifluoromethyl)-1,2,4-oxadiazol-3-yl]phenyl}methoxy)quinazoline]	3400 nM	280 nM
Fc1cc(COc2cccc(Cl)n2)ccc1-c1noc(C(F)(F)F)n1 [Example 286, 2-chloro-6-({3-fluoro-4-[5-(trifluoromethyl)-1,2,4-oxadiazol-3-yl]phenyl}methoxy)pyridine]	2700 nM	50 nM
Fc1cc(COc2cncc(Cl)c2)ccc1-c1noc(C(F)(F)F)n1 [Example 287, 3-chloro-5-({3-fluoro-4-[5-(trifluoromethyl)-1,2,4-oxadiazol-3-yl]phenyl}methoxy)pyridine]	1800 nM	150 nM
Fc1cc(COc2ccc(Cl)nc2)ccc1-c1noc(C(F)(F)F)n1 [Example 288, 2-chloro-5-({3-fluoro-4-[5-(trifluoromethyl)-1,2,4-oxadiazol-3-yl]phenyl}methoxy)pyridine]	45000 nM	280 nM
Cn1ccc(COc2nccc(-c3noc(C(F)(F)F)n3)c2Cl)n1 [Example 289, 3-chloro-2-[(1-methyl-1H-pyrazol-3-yl)methoxy]-4-[5-(trifluoromethyl)-1,2,4-oxadiazol-3-yl]pyridine]	8400 nM	680 nM
Cc1cnc(COc2nccc(-c3noc(C(F)(F)F)n3)c2Cl)cn1 [Example 290, 2-[({3-chloro-4-[5-(trifluoromethyl)-1,2,4-oxadiazol-3-yl]pyridin-2-yl}oxy)methyl]-5-methylpyrazine]	8100 nM	660 nM
Fc1cccnc1COc1nccc(-c2noc(C(F)(F)F)n2)c1Cl [Example 291, 3-chloro-2-[(3-fluoropyridin-2-yl)methoxy]-4-[5-(trifluoromethyl)-1,2,4-oxadiazol-3-yl]pyridine]	9300 nM	190 nM
Cc1ncc(COc2nccc(-c3noc(C(F)(F)F)n3)c2Cl)c(C)n1 [Example 292, 5-[({3-chloro-4-[5-(trifluoromethyl)-1,2,4-oxadiazol-3-yl]pyridin-2-yl}oxy)methyl]-2,4-dimethylpyrimidine]	6500 nM	540 nM
Cn1cc(COc2nccc(-c3noc(C(F)(F)F)n3)c2Cl)nn1 [Example 293, 3-chloro-2-[(1-methyl-1H-1,2,3-triazol-4-yl)methoxy]-4-[5-(trifluoromethyl)-1,2,4-oxadiazol-3-yl]pyridine]	4500 nM	510 nM
FC(F)(F)c1nc(-c2ccnc(OCc3nccnc3Cl)c2Cl)no1 [Example 294, 2-chloro-3-[({3-chloro-4-[5-(trifluoromethyl)-1,2,4-oxadiazol-3-yl]pyridin-2-yl}oxy)methyl]pyrazine]	12000 nM	410 nM

Structure (SMILES)	IC50 [1]	IC50 [2]
FC(F)(F)c1nc(-c2ccnc(OCc3ncccc3Cl)c2Cl)no1 [Example 295, 3-chloro-2-[(3-chloropyridin-2-yl)methoxy]-4-[5-(trifluoromethyl)-1,2,4-oxadiazol-3-yl]pyridine]	17000 nM	500 nM
FC(F)(F)c1nc(-c2ccc(COc3nc(C4CC4)no3)nc2)no1 [Example 296, 2-{[(3-cyclopropyl-1,2,4-oxadiazol-5-yl)oxy]methyl}-5-[5-(trifluoromethyl)-1,2,4-oxadiazol-3-yl]pyridine]	3700 nM	49 nM
FC(F)(F)c1nc(-c2ccc(COc3cccc4[nH]nnc34)nc2)no1 [Example 297, 4-({5-[5-(trifluoromethyl)-1,2,4-oxadiazol-3-yl]pyridin-2-yl}methoxy)-1H-benzotriazole]	310 nM	51 nM
FC(F)(F)c1nc(-c2ccc(COc3nncc4ccccc34)nc2)no1 [Example 298, 1-({5-[5-(trifluoromethyl)-1,2,4-oxadiazol-3-yl]pyridin-2-yl}methoxy)phthalazine]	1000 nM	290 nM
O=C1NCCc2c(OCc3ccc(-c4noc(C(F)(F)F)n4)cn3)cccc21 [Example 299, 5-({5-[5-(trifluoromethyl)-1,2,4-oxadiazol-3-yl]pyridin-2-yl}methoxy)-3,4-dihydroisoquinolin-1(2H)-one]	1300 nM	800 nM
O=c1ccc2cnccc2n1Cc1ccc(-c2noc(C(F)(F)F)n2)cn1 [Example 301, 1-({5-[5-(trifluoromethyl)-1,2,4-oxadiazol-3-yl]pyridin-2-yl}methyl)-1,6-naphthyridin-2(1H)-one]	280 nM	37 nM
FC(F)(F)c1nc(-c2ccc(COc3nccc4nccn34)nc2)no1 [Example 303, 5-({5-[5-(trifluoromethyl)-1,2,4-oxadiazol-3-yl]pyridin-2-yl}methoxy)imidazo[1,2-c]pyrimidine]	990 nM	170 nM
Cn1c(OCc2ccc(-c3noc(C(F)(F)F)n3)cn2)nc2cccnc21 [Example 304, 3-methyl-2-({5-[5-(trifluoromethyl)-1,2,4-oxadiazol-3-yl]pyridin-2-yl}methoxy)-3H-imidazo[4,5-b]pyridine]	250 nM	79 nM
FC(F)(F)c1nc(-c2ccc(COc3ccc4ncnn4c3)nc2)no1 [Example 305, 6-({5-[5-(trifluoromethyl)-1,2,4-oxadiazol-3-yl]pyridin-2-yl}methoxy)[1,2,4]triazolo[1,5-a]pyridine]	2400 nM	1700 nM
FC(F)c1cc(OCc2ccc(-c3noc(C(F)(F)F)n3)cn2)ncn1 [Example 306, 4-(difluoromethyl)-6-({5-[5-(trifluoromethyl)-1,2,4-oxadiazol-3-yl]pyridin-2-yl}methoxy)pyrimidine]	1300 nM	220 nM
Cc1cncnc1OCc1ccc(-c2noc(C(F)(F)F)n2)cn1 [Example 307, 5-methyl-4-({5-[5-(trifluoromethyl)-1,2,4-oxadiazol-3-yl]pyridin-2-yl}methoxy)pyrimidine]	2200 nM	620 nM
COc1ncccc1OCc1ccc(-c2noc(C(F)(F)F)n2)cn1 [Example 308, 2-methoxy-3-({5-[5-(trifluoromethyl)-1,2,4-oxadiazol-3-yl]pyridin-2-yl}methoxy)pyridine]	740 nM	310 nM
FC(F)(F)c1nc(-c2ccc(COc3cc(Cl)ncn3)nc2)no1 [Example 309, 4-chloro-6-({5-[5-(trifluoromethyl)-1,2,4-oxadiazol-3-yl]pyridin-2-yl}methoxy)pyrimidine]	4200 nM	450 nM
FC(F)(F)c1nc(-c2ccc(COc3ccc(Cl)nc3)nc2)no1 [Example 310, 2-chloro-5-({5-[5-(trifluoromethyl)-1,2,4-oxadiazol-3-yl]pyridin-2-yl}methoxy)pyridine]	2400 nM	770 nM
FC(F)(F)c1nc(-c2ccc(COc3ccc4cnccc4n3)nc2)no1 [Example 311, 2-({5-[5-(trifluoromethyl)-1,2,4-oxadiazol-3-yl]pyridin-2-yl}methoxy)-1,6-naphthyridine]	880 nM	540 nM
CC1(C)COCCN1C(=O)[C@@H]1CCC(=O)N1c1ccc(-c2noc(C(F)(F)F)n2)c(F)c1 [Example 344, (5S)-5-[(3,3-dimethylmorpholin-4-yl)carbonyl]-1-{3-fluoro-4-[5-(trifluoromethyl)-1,2,4-oxadiazol-3-yl]phenyl}pyrrolidin-2-one]	45000 nM	1900 nM
CC1(C)C(=O)NCCN1C(=O)[C@@H]1CCC(=O)N1c1ccc(-c2noc(C(F)(F)F)n2)c(F)c1 [Example 345, 4-(1-{3-fluoro-4-[5-(trifluoromethyl)-1,2,4-oxadiazol-3-yl]phenyl}-5-oxo-L-prolyl)-3,3-dimethylpiperazin-2-one]	43000 nM	1500 nM
